US20070270418A1, “Inhibitors of P38 and Methods of Using the Same” (priority 2003, published 2007)
Read-outs that look alike come from different tables or passages of the source.

Assays:
[1] = system: TNFα release from THP-1 cells; assay: TNFα release from LPS-stimulated THP-1 cells; assay type: cell-based; conditions: LPS 10 μg/ml, 18 hours, read-out: TNFα (THP-1) IC50
How it was run: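 THP-1 cells (10^6 cells/ml on resuspension) preincubated with compound 30 min at 37°C, 5% CO2, final DMSO ≤0.5%, then stimulated with 10 μg/ml LPS for 18 h (TNFα). Supernatants collected for TNFα analysis.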

p38α = biological target: T1, p38α (Homo sapiens, UniProt Q16539); assay: p38 MAP Kinase assay, ATF2 phosphorylation (ELISA); assay type: biochemical; conditions: 40 μM ATP
T1 construct: p38 MAP Kinases are recombinant human full-length proteins with an amino-terminal GST fusion; GST (N); purchased Upstate (Charlottesville, Va.); host or cells: E. coli
T1 sequence (Q16539 whole entry, the tested form may be a part): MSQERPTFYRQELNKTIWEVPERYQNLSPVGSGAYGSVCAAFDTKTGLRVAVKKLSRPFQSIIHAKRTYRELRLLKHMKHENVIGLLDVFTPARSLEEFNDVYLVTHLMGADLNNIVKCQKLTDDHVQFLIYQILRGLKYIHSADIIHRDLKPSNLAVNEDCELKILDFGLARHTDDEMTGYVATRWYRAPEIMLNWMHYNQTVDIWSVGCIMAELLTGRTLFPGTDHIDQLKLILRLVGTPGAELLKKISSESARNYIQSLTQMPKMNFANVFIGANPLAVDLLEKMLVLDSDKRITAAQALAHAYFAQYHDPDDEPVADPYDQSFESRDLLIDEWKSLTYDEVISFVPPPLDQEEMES
How it was run: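 ATF2 Thr69 phosphorylation was quantified by ELISA (HRP/TMB, 450 nm) after EDTA termination. Reactions: 6 ng GST-fused full-length human p38α, 15 min compound pre-incubation at room temperature, then 30 min at 37° C with 40 μM ATP and 1.25 μM GST-ATF2 (aa 19-96), pH 7.5 HEPES buffer.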

| IC50 ([1]; Homo sapiens, THP-1, 18 h) [nM] | IC50 (p38α) [nM] | melting point [°C] | IC50 [1] [nM] | Compound |
| --- | --- | --- | --- | --- |
| 4860 | 966 | 197 to 198 | – | CS(=O)(=O)c1nccc(-c2c(-c3ccc(F)cc3)nc3sccn23)n1 [CXL, 6-(4-fluorophenyl)-5-(2-methanesulfonyl-pyrimidin-4-yl)-imidazo[2,1-b]thiazole] |
| – | 1130 | 144 to 145 | – | CSc1nccc(-c2c(-c3ccc(F)cc3)nc3occn23)n1 [X, 6-(4-fluorophenyl)-5-[2-(methylsulfanyl)pyrimidin-4-yl]imidazo[2,1-b][1,3]oxazole] |
| 9.08 | 11.9 | – | – | C=CCNc1nccc(-c2c(-c3ccc(F)cc3)nc3occn23)n1 [XXIII] |
| 18.6 | 3.7 | – | – | CC[C@@H](CO)Nc1nccc(-c2c(-c3ccc(F)cc3)nc3occn23)n1 [XXII] |
| 1.78 | 15 | – | – | Fc1ccc(-c2nc3occn3c2-c2ccnc(NC3CCC3)n2)cc1 [XXIV] |
| 4.45 | 4.28 | – | – | Fc1ccc(-c2nc3occn3c2-c2ccnc(NCC3CC3)n2)cc1 [XXIX] |
| 13.9 | 6.86 | – | – | C[C@H](O)CNc1nccc(-c2c(-c3ccc(F)cc3)nc3occn23)n1 [XXI] |
| 15.3 | 3.47 | – | – | CCCNc1nccc(-c2c(-c3ccc(F)cc3)nc3occn23)n1 [XXVIII] |
| 6.08 | 20.5 | – | – | CC[C@H](CO)Nc1nccc(-c2c(-c3ccc(F)cc3)nc3occn23)n1 [XXVII] |
| 100 | 480 | – | – | CN(C)CCNc1nccc(-c2c(-c3ccc(F)cc3)nc3occn23)n1 [XXVI] |
| 466 | 21.5 | – | – | OCCCNc1nccc(-c2c(-c3ccc(F)cc3)nc3occn23)n1 [XXV] |
| 57 | 143 | – | – | OCC(O)CNc1nccc(-c2c(-c3ccc(F)cc3)nc3occn23)n1 (stereo not shown) [XXXIII] |
| 4.89 | 19 | – | – | COC[C@H](C)Nc1nccc(-c2c(-c3ccc(F)cc3)nc3occn23)n1 [XXXII] |
| 19.7 | 2.19 | – | – | CCCC(CO)Nc1nccc(-c2c(-c3ccc(F)cc3)nc3occn23)n1 (stereo not shown) [XXXIV] |
| 5.88 | 5.25 | 149 | – | CC(C)(CO)CNc1nccc(-c2c(-c3ccc(F)cc3)nc3occn23)n1 [XXXIX, 3-({4-[6-(4-Fluorophenyl)imidazo[2,1-b][1,3]oxazol-5-yl]pyrimidin-2-yl}amino)-2,2-dimethylpropan-1-ol] |
| 10.3 | 1.6 | – | – | COCC(C)Nc1nccc(-c2c(-c3ccc(F)cc3)nc3occn23)n1 (stereo not shown) [XXXI] |
| 168 | 343 | – | – | CN(C)CCCNc1nccc(-c2c(-c3ccc(F)cc3)nc3occn23)n1 [XXXVIII] |
| 21.5 | 5.95 | – | – | Fc1ccc(-c2nc3occn3c2-c2ccnc(NCc3ccco3)n2)cc1 [XXXVII] |
| 76.6 | 103 | – | – | Cc1ccc(CNc2nccc(-c3c(-c4ccc(F)cc4)nc4occn34)n2)o1 [XXXVI] |
| 17.9 | 17.9 | – | – | CC(CO)CCNc1nccc(-c2c(-c3ccc(F)cc3)nc3occn23)n1 (stereo not shown) [XXXV] |
| – | 34.8 | – | 12.3 | CC(CO)Nc1nccc(-c2c(-c3ccc(F)cc3)nc3occn23)n1 (stereo not shown) [XXX] |
| 65 | 24.3 | – | – | COCCNc1nccc(-c2c(-c3ccc(F)cc3)nc3occn23)n1 [XX] |
